Results taken from patent publication EP3338775B1, “USE OF BUTYLIDENEPHTHALIDE” (Everfront Biotech Inc., priority 2015, dated 2017).
Several values for one entry are separate records, joined by “and”; a condition that tells them apart may be missing. Identical values can stand only once.

Experiments:
Assay type in all cases: cell-based
brain CSCs ^CD133+ = test: MTT cell viability assay on brain CSCs CD133+
From the text: Thereafter, a cell viability assay, MTT assay, was utilized to analyze the viabilities of brain CSCs ^CD133+ and malignant glioma DBTRG cells. […]

EZH2 = test: Western blotting of EZH2 protein in brain CSCs CD133+; conditions: BP 0, 12.5, 25, 50, 62.5 and 75 µg/ml; Figure 3
Procedure: It has been known that EZH2 (enhancer of zeste homolog 2) gene is a critical growth related factor of cancer stem cells, and it will affect the growth and growth characteristics of cancer stem cells. Brain CSCs ^CD133+ was treated with different concentrations (0, 12.5, 25, 50, 62.5 and 75 µg/ml) of BP, and then, proteins were extracted from the cells to conduct Western blotting to determine the expression of EZH2 protein in the BP-treated brain CSCs ^CD133+.

ALDH = test: ALDEFLUOR flow cytometry analysis of ALDH activity in HNC-TIC-like oral stem cells; conditions: group without DEAB addition; BP 0, 25 and 50 µg/ml for 24 hours; Figure 8
Procedure: ALDH protein is also an important stemness-maintenance marker of cancer stem cells and participates in the regulation of the self-renewal and differentiation of cancer stem cells. HNC-TIC-like oral stem cells (i.e., ALDH1^+CD44^+-1 cell line or ALDH1^+CD44^+-2 cell line) were treated with different concentrations (0, 25 and 50 µg/ml) of BP for 24 hours, and then, 1 ×10^5 cells obtained from each group were separately suspended in 50 µl of a stem cell detection kit (i.e., ALDEFLUOR array kit, purchased from […] Technologies Inc., Vancouver, Canada) buffer and the cell suspension of each group was separately added with ALDEFLUOR to a final concentration of 1 µM. Thereafter, a sample of each group was stained by […] and then analyzed by flow cytometry analysis to determine the ALDH activity of HNC-TIC-like oral stem cells (i.e., ALDH1^+CD44^+-1 cell line and ALDH1^+CD44^+-2 cell line).
The above experimental procedure was repeated, but the cell suspension of each group was further added with N,N-diethylaminobenzaldehyde (DEAB, i.e., an inhibitor of ALDH) to a final concentration of 150 µM of DEAB separately.

[1] = tested on: HNC-TIC-like oral stem cells (ALDH1^+CD44^+-1 cell line or ALDH1^+CD44^+-2 cell line); test: Transwell invasion assay with HNC-TIC-like oral stem cells; conditions: BP 0, 25 and 50 µg/ml for 24 hours
From the text: In this research, the effect of BP on inhibiting the migration and invasion of cancer stem cells was further investigated by a transwell invasion assay system (i.e., Transwell^○,R system, purchased from Corning, UK) with a polycarbonate filter membrane of 8-µm pore size (purchased from Coming, UK). First, the polycarbonate filter membrane was coated with Matrigel™ (purchased from BD Pharmingen, USA), and then, the coated membrane was placed in the lower chamber of the transwell invasion assay system. Then, the lower chamber was filled with 10% serum-containing medium. On the other hand, HNC-TIC-like oral stem cells (i.e., ALDH1^+CD44^+-1 cell line or ALDH1^+CD44^+-2 cell line) were treated with different concentrations (0, 25 and 50 µg/ml) of BP for 24 hours, and then, the treated cells of each group was cultured in the upper chamber which was filled with serum-free medium, at a cell density of 1×10^5 cells/100 µl for 24 hours. […] The invasion cancer cells of each group were counted and photographed over five visual fields of the membrane with the use of a 100-fold magnification under a microscope. The relative invasion ability of cells of each experimental group was calculated based on the result of the group treated with 0 µg/ml of BP.

[2] = tested on: pcDNA 3.0-Axl brain CSCs ^CD133+; test: Wound healing assay with pcDNA 3.0-Axl brain CSCs CD133+ (Axl overexpression); conditions: BP 0, 25, 50, 62.5, 75 and 100 µg/ml for 24 hours, compared to pcDNA3.0-neo cells, Figure 14C
Procedure: In this research, to further investigate whether the capability of BP in inhibiting the metastasis of cancer stem cells is related to Axl, brain CSCs ^CD133+ was transfected with pcDNA3.0-Axl plasmid and pcDNA3.0-neo plasmid respectively by using Lipofectmine 2000 transfection reagent. Then, the transfected brain CSCs ^CD133+ and un-transfected brain CSCs ^CD133+ were selected by 200 to 600 µg/ml G418 at the same time to obtain brain CSCs ^CD133+ having pcDNA3.0-Axl plasmid (hereinafter referred to as "pcDNA 3.0-Axl brain CSCs ^CD133+") or brain CSCs ^CD133+ having pcDNA3.0-neo plasmid (hereinafter referred to as "pcDNA3.0-neo brain CSCs ^CD133+"). Both pcDNA 3.0-Axl brain CSCs ^CD133+ and pcDNA3.0-neo brain CSCs ^CD133+ were observed and photographed with the use of a microscope. Then, proteins were extracted from both cells to conduct Western blotting to determine the expressions of Axl protein and β-actin in the BP-treated brain CSCs ^CD133+. Yet another, pcDNA 3.0-Axl brain CSCs ^CD133+ and pcDNA3.0-neo brain CSCs ^CD133+ were treated with different concentrations (0, 25, 50, 62.5, 75 and 100 µg/ml) of BP for 24 hours. At the same time, the phenomenon of pcDNA 3.0-Axl brain CSCs ^CD133+ and pcDNA3.0-neo brain CSCs ^CD133+ migrate to the wound was observed and photographed at 0 and 24 hours during the BP treatment.

CCCC=C1OC(=O)c2ccccc21 [BP, butylidenephthalide]
viability of brain CSCs ^CD133+ (brain CSCs ^CD133+; 24-hour group and 48-hour group, BP 0-100 µg/ml, BCNU 0-1000 µM, Figure 1A, 1B): significantly decreased
IC50 (brain CSCs ^CD133+; 24 h, read-out: IC50 to brain CSCs ^CD133+): 406 µM and 76.5 µg/mL
expression of EZH2 protein in brain CSCs ^CD133+ (EZH2): significantly decreased
number of live cells with ALDH activity (ALDH): increased along with the increment in the concentration of BP
number of cells on the polycarbonate filter membrane ([1]; Figure 11A): significantly reduced
relative invasion ability of cancer stem cells ([1]; relative to 0 µg/ml group, Figure 11B): decreased along with the increment in the concentration of BP
suppression of the number of pcDNA 3.0-Axl brain CSCs ^CD133+ migrated to the wound [2]: not quite significant
